# Measurements taken from a melting point compilation (Tetko et al.; mined from patent text by program, amines drawn as free bases though some values may be those of a salt).
row,SMILES,melting point
1,COc1cc(OC)cc(C(=O)NNC(=O)Nc2cccc3c2C(=O)c2c-3n[nH]c2-c2ccc(N3CCNCC3)cc2)c1,> 300 °C
2,CCC(O)(CC)c1cc(Br)ccc1N,64 to 66 °C
3,COc1cc(COc2nn(Cc3ccccc3)cc2C(=O)O)ccc1OCc1nc(-c2ccccc2)oc1C,162 to 163 °C
4,O=C1NC(=O)C(Cc2ccc(OCc3nc4cccnc4n3-c3ccccc3)cc2)S1 (centres undefined),88 to 91 °C
5,Cc1nc(-c2ccccc2)cc(-c2cccc([N+](=O)[O-])c2)c1CO,209 to 214 °C
6,CC(C)On1c(C(C)(C)C)nc2c(N)nc3ccccc3c21,187 to 189 °C
7,CCn1cc(C(=O)O)c(=O)c2cc(Cl)c(N3CCCC3)cc21,325 °C
8,CCCCCCCCCCCCCCCCCCS(=O)(=O)Nc1ccc(O)cc1,142 °C
9,c1cnc2[nH]cc(CN3CCc4ccc(-c5ccsc5)cc4C3)c2c1,228 to 230 °C
10,NS(=O)(=O)c1ccc(C=O)cc1,104 to 106 °C
11,CCN1C(=O)CC(C(=O)O)C1c1ccccc1 (centres undefined),151 to 156 °C
12,CCOc1ccc(-c2nc(-c3ccc(SC(=O)N(C)C)c(C(=O)OC)c3)cs2)cc1OCC,108 to 109 °C
13,CS(=O)(=O)OC[C@H]1CN(c2ccc(C3=CCSCC3)c(F)c2)C(=O)O1,138 to 141 °C
14,CC(=O)c1ccc(-c2ccc(C#N)o2)cc1,122 to 125 °C
15,C[Si](C)(C)OC(C(N)=O)(C(N)=O)c1ccc(Cl)c(Cl)c1,156 °C
16,CC(C)C(C(=O)O)c1ccc(OC(F)(F)C(F)F)cc1 (centres undefined),92 to 97 °C
17,O=C1NC(=S)NC1=Cc1cc(O)c(O)c([N+](=O)[O-])c1,> 350 °C
18,COC(=O)COc1ccc(CC2SC(=O)NC2=O)cc1 (centres undefined),100 to 106 °C
19,OC[C@H]1O[C@@H](n2cnc3c(NC4CCOC4)ncnc32)[C@@H](O)[C@H]1O (some centres undefined),128 to 130 °C
20,COc1cc2sc(C#N)cc2c(Cl)c1OC,159 to 160 °C
21,Cc1cccc(NCCC(N)=S)c1C,116 to 118 °C
22,O=C(O)CCc1[nH]nc2c1CCC2,157 to 159 °C
23,COc1ccc2c(=O)c3[nH]c(C(=O)O)cc(=O)c3oc2c1,253 to 254 °C
24,CC(=O)NCC1CN(c2ccc(-c3cccc(CCl)c3)c(F)c2)C(=O)O1 (centres undefined),128 to 130 °C
25,CCON=C(C(=O)OCC)c1csc(NC(c2ccccc2)(c2ccccc2)c2ccccc2)n1,165 °C

row,SMILES,melting point
1,Nc1nc(O)c2ncn(C=C3CC3CO)c2n1 (centres undefined),218 to 221 °C
2,CN(C)C/C=C/C(=O)N1CCOc2cc3ncc(C#N)c(Nc4ccc(F)c(Cl)c4)c3cc21,199 to 200 °C
3,C=Cc1ccc(CC(N)=O)nc1,120 to 121 °C
4,CCCOc1ccc(S(=O)(=O)N2CC(CN(C)C)C2)cc1-c1nc2c([nH]1)c1nncn1c(=O)n2CCC,172 °C
5,Cc1cc(-c2nncc3c(C(C)(C)C)c(OCc4ncnn4C)nn23)no1,171 to 174 °C
6,CCC1(Cl)C(=O)c2c(cc(OCC(=O)O)c(Cl)c2Cl)C1Cl (centres undefined),186 °C
7,Fc1ccc2[nH]cc(C3=CCN(CC4COc5cccnc5O4)CC3)c2c1 (centres undefined),124 °C
8,CCOC(=O)c1cc(C(=O)c2ccccc2Cl)c(-n2c(C)nnc2CNC(=O)Nc2cccc(OC)c2)s1,132 to 134 °C
9,CCCn1ccn(-c2ccc(N3CCN(c4ccc(OC)cc4)CC3)cc2)c1=O,184 °C
10,CCCOc1ccccc1C(=O)Nc1sccc1C(N)=O,176 to 178 °C
11,COc1cc(-c2nc3ccccc3n2Cc2cccc(Cl)c2)cc(OC)c1OC,83 °C
12,COc1ccc(CN(Cc2ccc(OC)cc2)c2nc(-c3ccccc3)c(-c3ccc(=O)n(C(C)C)n3)nc2C(N)=O)cc1,120 to 122 °C
13,CC(=O)Nc1ccc([N+](=O)[O-])c(Cl)c1,134 to 136 °C
14,CCn1c2ccc(C(C)=O)cc2c2cc(C(C)=O)ccc21,184 to 190 °C
15,O=C1CCCC(=O)C1C(=O)c1ccc(OC(F)F)cc1Cl,68 to 72 °C
16,CCON=C(CC)C1=C(O)CC(c2ccc3c(c2)OCC(=O)N3)CC1=O (centres undefined),160 to 162 °C
17,O=P(O)(O)C(O)(Cc1ccc2ccccc2c1)P(=O)(O)O,257 °C
18,COc1cc(N)c(F)cc1Br,60 to 62 °C
19,O=C(NN1CCCCCC1)c1nc(-c2ccc(Cl)cc2Cl)c(-c2ccc(Cl)cc2)s1,185 to 186 °C
20,CC(C)c1ccc(N(Cc2ccc(N(C)C)cc2)C(=O)C2CCCc3c(O)cccc32)cc1 (centres undefined),200 to 202 °C
21,Nc1ccccc1C(=O)NCCN1CCC(Nc2nc3ccccc3n2Cc2ccc(F)cc2)CC1,172 °C
22,C#CCCCCOc1cc(C=O)ccc1OC,66 to 67 °C
23,CN1CCN(C2=CCCc3ccc(OCc4ccc(Cl)cc4)cc32)CC1,115 to 116 °C
24,COC(=O)C1(NC(=O)Cc2cc(-c3ccc(F)cc3)ccc2C)CCC(F)(F)CC1,187 °C
